SMILES strings stand for the structures.

Usually Ki stands for a dissociation constant, usually derived from enzyme kinetics or from competition with a known ligand. A high value points to a looser hold on the target.

The test system of assay [1] is LPS induced IL-6 (Interleukin-6) production. The assay is described as follows: LPS (lipopolysaccharide) induced IL-6 production mouse assay. In kind it is in vivo. Conditions: CD-1 female mice, oral administration one hour before LPS 2.5 mg/kg intraperitoneal, serum 2 hours after LPS; p value less than 0.05. The method, then:
Example 2 was assayed for its ability to inhibit LPS (lipopolysaccharide) induced IL-6 (Interleukin-6) production in mice. CD-1 female mice (Charles River Laboratories, 5 per group) received an intraperitoneal challenge of lipopolysaccharide (2.5 mg/kg, L2630 E. coli 0111:B4) one hour after oral administration of compound or compound vehicle. Mice were euthanized 2 hours after lipopolysaccharide injection, blood was removed by cardiac puncture, and then the serum harvested from the blood samples was frozen at −80 OC. On the day of the assay the serum samples were brought to room temperature and then diluted 1:20 in phosphate-buffered saline containing 2% bovine serum albumin. Interleukin-6 measurements were performed using a cytokine assay from Meso Scale Discovery (Gaithersburg, Md.) for mouse serum analysis according to the manufacturer's protocol and read on a SECTOR Imager 6000 (Meso Scale Discovery, Gaithersburg, Md.) instrument. Statistical analysis was performed using Prism software (version 5.0) incorporating Dunnett's one way ANOVA. The IL-6 mean and standard deviation of the group of vehicle treated animals were compared with the IL-6 mean and standard deviation of the group treated with drug. A p value <0.05 means that there is less than a 5% probability that the mean values in the two groups are equal.

A further assay concerns the target BRD4 (BDII_E352-M457) (Homo sapiens (Human), UniProt O60885). The assay is described as follows: TR-FRET bromodomain binding assay, BRD4 second bromodomain. Conditions: His-tagged BD2, Alexa647-labeled probe 30 nM. A digest of the protocol: (§1)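 His-tagged BRD4 BD1 (K57-E168) or BD2 at 8 nM, 1 nM Eu-anti-His antibody and Alexa647 BET-inhibitor probe (100 nM for BDI, 30 nM for BDII) in pH 6.0 phosphate buffer, 2% DMSO, compound 50 μM-0.85 nM; 1 h at RT, TR-FRET read. IC50 by 4-parameter fit, Ki from probe Kd and concentration.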

For a further assay, the target named is BRD4 (BDI_K57-E168) (Homo sapiens (Human), UniProt O60885). The assay is described as follows: TR-FRET bromodomain binding assay, BRD4 first bromodomain. Conditions: His-tagged BD1, Alexa647-labeled probe 100 nM. A digest of the protocol:
as §1
(In general: TR-FRET usually uses a lanthanide donor and a delayed reading to cut background.)

The subject of assay [2] is breast cancer cell line MX-1. The assay is described as follows: MX-1 cell line proliferation assay, Method A. The format is cell-based. Conditions: MX-1 cells, 96-well, 72 hours, Cell Titer Glo; read-out: Cellular proliferation: EC50 Method A. The method, then: (§2) The impact of compounds of the Examples on cancer cell proliferation was determined using the breast cancer cell line MX-1 (ATCC) in a 3-day proliferation assay and the data are reported in Table 1.
For compound testing, MX-1 cells were plated in 96-well black bottom plates at a density of 5000 cells/well in 90 μL of culture media and incubated at 370 overnight to allow cell adhesion and spreading. Compound dilution series were prepared in DMSO via a 3-fold serial dilution from 3 mM to 0.1 μM. The DMSO dilution series were then diluted 1:100 in phosphate buffered saline, and 10 μL of the resulted solution were added to the appropriate wells of the MX-1 cell plate. The final compound concentrations in the wells were 3, 1, 0.3, 0.1, 0.03, 0.01, 0.003, 0.001, 0.0003 and 0.0001 μM.
Luminescence readings from the Cell Titer Glo assay were normalized to the DMSO treated cells and analyzed using the GraphPad Prism software with sigmoidal curve fitting to obtain EC50s. The minimum significant ratio (MSR) was determined to evaluate assay reproducibility (Eastwood et al., (2006) J Biomol Screen, 11: 253-261).
(In ATP-based viability assays light output follows the ATP content of the culture.)

Assay [3] deals with breast cancer cell line MX-1. The assay is described as follows: MX-1 cell line proliferation assay, Method B. In kind it is cell-based. Conditions: Homo sapiens, MX1; MX-1 cells, 384-well, 72 hours, Cell Titer Glo; read-out: Cellular proliferation: EC50 Method B. The method, then: as §2
Method B: MX-1 cells were maintained in RPMI 1640 medium (Sigma) supplemented with 10% FBS at 37 C.° and an atmosphere of 5% CO2. For compound testing, MX-1 cells were plated in 384-well white with clear, flat bottom plates at a density of 750 cells/well in 25 μL of culture media and incubated at 370 overnight to allow cell adhesion and spreading. Ten point compound dilution series were prepared in DMSO via a 3-fold serial dilution from either […] or 1 μM stock and added directly to the appropriate wells of the MX-1 cell plate by an ECHO liquid handler (Labcyte). The final compound concentrations in the wells were 10, 3.25, 1, 0.25, 0.124, 0.040, 0.0124, 0.0031, 0.0015 and 0.0005 μM or 1, 0.33, 0.1, 0.025, 0.0124, 0.004, 0.0012, 0.0003, 0.00015, 0.00005 μM, depending on the concentration of the compound stock solution.
Luminescence readings from the Cell Titer Glo assay were normalized to the DMSO treated cells and analyzed using Accelrys Assay Explorer 3.3 software with sigmoidal curve fitting to obtain ECsos. The minimum significant ratio (MSR) was determined to evaluate assay reproducibility (Eastwood et al., (2006) J Biomol Screen, 11: 253-261). The overall MSR was determined to be 3.3 and a moving MSR (last six run MSR overtime) has averaged

As for `CCS(=O)(=O)Nc1cc(-c2cn(C)c(=O)c3[nH]ccc23)c(Oc2ccc(F)cc2F)cc1CN(C)C` [Example 2, N-[4-(2,4-difluorophenoxy)-2-[(dimethylamino)methyl]-5-(6-methyl-7-oxo-6,7-dihydro-1H-pyrrolo[2,3-c]pyridin-4-yl)phenyl]ethanesulfonamide], the “inhibition of LPS induced IL-6 production” value in assay [1] is recorded as 45%. Besides, the Ki on BRD4 (BDII_E352-M457) is 4 nM; on BRD4 (BDI_K57-E168), 57 nM.

`COc1ccc(S(=O)(=O)Nc2cccc(Oc3ccc(S(C)(=O)=O)cc3-c3cn(C)c(=O)c4[nH]ccc34)c2)cc1OC` [Example 53]: the EC50 in assay [2] was 144 nM.

For the molecule `Cn1cc(-c2cc(S(C)(=O)=O)ccc2NC2CCN(S(=O)(=O)/C=C/c3ccccc3)CC2)c2cc[nH]c2c1=O` [Example 102], the EC50 in assay [2] came to 67.3 nM.

Consider `CCNC(=O)c1cc2c(-c3ccc(C(=O)N(CCN(CC)CC)c4ccccc4)cc3Oc3c(C)cccc3C)cn(C)c(=O)c2[nH]1` [Example 182, 4-[4-{[2-(diethylamino)ethyl](phenyl)carbamoyl}-2-(2,6-dimethylphenoxy)phenyl]-N-ethyl-6-methyl-7-oxo-6,7-dihydro-1H-pyrrolo[2,3-c]pyridine-2-carboxamide], for which the Ki is 6.06 nM on BRD4 (BDII_E352-M457) and 921 nM on BRD4 (BDI_K57-E168). Besides, the EC50 in assay [3] was 2120 nM.

In the case of `CCNC(=O)c1cc2c(-c3ccc(C(=O)N(CC#N)c4ccc(OC)cc4)cc3Oc3c(C)cccc3C)cn(C)c(=O)c2[nH]1` [Example 183, 4-{4-[(cyanomethyl)(4-methoxyphenyl)carbamoyl]-2-(2,6-dimethylphenoxy)phenyl}-N-ethyl-6-methyl-7-oxo-6,7-dihydro-1H-pyrrolo[2,3-c]pyridine-2-carboxamide], the inhibition constant (Ki) on BRD4 (BDII_E352-M457) came to 14.1 nM; at BRD4 (BDI_K57-E168) it was 2800 nM. Further, the EC50 in assay [3] worked out at 1480 nM.

Turning to `CCCCN(CCC#N)C(=O)c1ccc(-c2cn(C)c(=O)c3[nH]c(C(=O)NCC)cc23)c(Oc2c(C)cccc2C)c1` [Example 184, 4-{4-[butyl(2-cyanoethyl)carbamoyl]-2-(2,6-dimethylphenoxy)phenyl}-N-ethyl-6-methyl-7-oxo-6,7-dihydro-1H-pyrrolo[2,3-c]pyridine-2-carboxamide], the Ki is 11.1 nM at BRD4 (BDII_E352-M457) and 1080 nM on BRD4 (BDI_K57-E168). In addition, the EC50 in assay [3] was 2840 nM.

In the case of `CCNC(=O)c1cc2c(-c3ccc(C(=O)N(CCN(C)C)c4ccnc(F)c4)cc3Oc3c(C)cccc3C)cn(C)c(=O)c2[nH]1` [Example 185, 4-[4-{[2-(dimethylamino)ethyl](2-fluoropyridin-4-yl)carbamoyl}-2-(2,6-dimethylphenoxy)phenyl]-N-ethyl-6-methyl-7-oxo-6,7-dihydro-1H-pyrrolo[2,3-c]pyridine-2-carboxamide], the Ki on BRD4 (BDII_E352-M457) was determined as 14.3 nM; on BRD4 (BDI_K57-E168), 2940 nM. Besides, in assay [3], the EC50 turned out to be 2720 nM.

With `CCNC(=O)c1cc2c(-c3ccc(C(=O)N(c4ccccc4)C4CCCCC4)cc3Oc3c(C)cccc3C)cn(C)c(=O)c2[nH]1` [Example 186, 4-{4-[cyclohexyl(phenyl)carbamoyl]-2-(2,6-dimethylphenoxy)phenyl}-N-ethyl-6-methyl-7-oxo-6,7-dihydro-1H-pyrrolo[2,3-c]pyridine-2-carboxamide], the Ki is 178 nM at BRD4 (BDII_E352-M457) and > 12700 nM at BRD4 (BDI_K57-E168). Also, the EC50 in assay [3] was found to be 7650 nM.

In the case of `Cc1cccc(C)c1Oc1ccc(S(C)(=O)=O)cc1-c1cn(C)c(=O)c2[nH]c(C(=O)NCCCN(C)C3CCCCC3)cc12` [Example 187, N-{3-[cyclohexyl(methyl)amino]propyl}-4-[2-(2,6-dimethylphenoxy)-5-(methylsulfonyl)phenyl]-6-methyl-7-oxo-6,7-dihydro-1H-pyrrolo[2,3-c]pyridine-2-carboxamide], the Ki was found to be 2.52 nM at BRD4 (BDII_E352-M457) and 99.8 nM on BRD4 (BDI_K57-E168). Moreover, the EC50 in assay [3] amounted to 290 nM.

In the case of `CN1CCN(Cc2cc3c(-c4cc(S(C)(=O)=O)ccc4Oc4ccc(F)cc4F)cn(C)c(=O)c3[nH]2)C(c2ccccc2)C1` (centres unmarked) [Example 188, 4-[2-(2,4-difluorophenoxy)-5-(methylsulfonyl)phenyl]-6-methyl-2-[(4-methyl-2-phenylpiperazin-1-yl)methyl]-1,6-dihydro-7H-pyrrolo[2,3-c]pyridin-7-one], the Ki amounted to 151 nM on BRD4 (BDII_E352-M457) and 1.56 nM at BRD4 (BDI_K57-E168). The EC50 in assay [3] turned out to be 76.8 nM.

These data come from patent US9957263B2, “Bromodomain inhibitors” (AbbVie Inc., priority 2013, dated 2018).
